Measured values reported in ChEMBL document CHEMBL1201862, “PubChem BioAssay data set” (2004).
Activity calls are given as the source filed them.

Experiments:
[1] = target: Scavenger receptor class B member 1 (Mus musculus, UniProt Q61009); assay: inhibitors of SR-BI mediated HDL lipid uptake, dose response, ldlA[mSR-BI] cells, fluorescence, cherry pick (AID 493194); assay type: functional, cell-based;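 also: cellular uptake of fluorescent DiI-labeled HDL measured as cell fluorescence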
MDCK [2] = assay: MDCK cell cytotoxicity, dose response, cytotoxicity control (AID 540296); assay type: functional; details: Canis lupus familiaris
HEK293 [3] = assay: NOD1 signaling inhibitors, primary screen, cell-based, luminescence, uHTS (AID 1578); assay type: functional; details: Homo sapiens
Vero = assay: Vero E6 cell cytotoxicity, dose response, cytotoxicity control (AID 540298); assay type: functional; details: Chlorocebus sabaeus
[4] = HeLa cell cytotoxicity, dose response, cytotoxicity control for MgcRacGAP inhibitor project (AID 624300); assay type: functional
[5] = target: Neurotensin receptor type 1 (Homo sapiens, UniProt P30989); assay type: functional;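 also: Image-based confirmatory dose-response assay measuring agonist activity at NTR1; NTR1-expressing U2OS osteosarcoma cells imaged for beta-arrestin GFP spot formation; agonist potency where compounds increase beta-arrestin recruitment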
HEK293 [6] = assay: cells; assay type: functional, cell-based; details: Homo sapiens
[7] = target: T1, Sphingosine 1-phosphate receptor 4 (Homo sapiens, UniProt O95977); assay: Fluorescence dose response cell-based high throughput screening assay for antagonists of the Sphingosine 1-Phosphate Receptor 4 (S1P4). [Related pubchem assays: 1524 (Confirmation in triplicates.), 1510 (Primary screen.)]; assay type: functional
T1 sequence (O95977 whole entry): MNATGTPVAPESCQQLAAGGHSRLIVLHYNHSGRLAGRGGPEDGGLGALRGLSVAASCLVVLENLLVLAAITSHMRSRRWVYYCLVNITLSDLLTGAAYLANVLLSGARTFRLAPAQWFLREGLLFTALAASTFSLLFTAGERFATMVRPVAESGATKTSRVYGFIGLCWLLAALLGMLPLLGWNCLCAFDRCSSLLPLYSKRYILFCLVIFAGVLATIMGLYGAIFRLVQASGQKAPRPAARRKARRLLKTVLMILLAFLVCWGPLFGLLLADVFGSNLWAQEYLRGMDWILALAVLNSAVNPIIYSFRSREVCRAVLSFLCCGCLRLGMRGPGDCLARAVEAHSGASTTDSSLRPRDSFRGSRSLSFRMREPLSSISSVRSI

HEK293 [8] = assay: NOD2 signaling inhibitors in MDP-stimulated cells, cell-based, uHTS, luminescence (AID 2001); assay type: functional; details: Homo sapiens
[9] = target: T2, Rac GTPase-activating protein 1 (Homo sapiens, UniProt Q9H0H5); assay: MgcRacGAP GTPase-activating activity inhibitors, confirmation, biochemical, ADP Hunter fluorescence, primary and confirmatory (AID 624330); assay type: functional
T2 sequence (Q9H0H5 whole entry): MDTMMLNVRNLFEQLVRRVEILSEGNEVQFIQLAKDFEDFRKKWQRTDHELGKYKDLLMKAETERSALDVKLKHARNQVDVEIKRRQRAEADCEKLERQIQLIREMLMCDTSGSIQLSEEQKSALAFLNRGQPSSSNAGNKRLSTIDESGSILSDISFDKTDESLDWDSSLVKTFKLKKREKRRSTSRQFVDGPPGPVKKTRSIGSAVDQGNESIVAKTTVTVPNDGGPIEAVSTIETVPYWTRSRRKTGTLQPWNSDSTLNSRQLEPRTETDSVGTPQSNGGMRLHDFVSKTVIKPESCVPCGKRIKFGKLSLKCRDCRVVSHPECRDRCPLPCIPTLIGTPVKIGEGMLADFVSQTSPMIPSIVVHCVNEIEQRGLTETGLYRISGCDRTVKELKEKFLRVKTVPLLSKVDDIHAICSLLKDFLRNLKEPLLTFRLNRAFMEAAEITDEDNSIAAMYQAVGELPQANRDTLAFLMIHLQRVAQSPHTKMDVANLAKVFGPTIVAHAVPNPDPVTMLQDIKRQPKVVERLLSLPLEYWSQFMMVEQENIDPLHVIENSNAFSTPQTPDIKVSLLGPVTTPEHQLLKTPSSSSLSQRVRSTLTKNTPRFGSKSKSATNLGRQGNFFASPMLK

MDCK [10] = assay: antiviral activity against H1N1 influenza, dose response, cell-based, strain KY136 (AID 540257); assay type: functional; details: Canis lupus familiaris
X-box-binding protein 1 = X-box-binding protein 1 (Homo sapiens, UniProt P17861); assay type: functional, Cricetulus griseus;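 also: confirmatory dose-response counter-screen serving a CHOP assay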
[11] = cytotoxicity toward NIH3T3 fibroblasts, dose response, counter-screen, cell-based, ATP luminescence, mouse fibroblasts (AID 2010); assay type: functional;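 also: cells exposed to compound for about 90 hours before reading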
[12] = target: G-protein coupled receptor 55 (Homo sapiens, UniProt Q9Y2T6); assay: GPR55 agonists via beta-arrestin recruitment, primary screen, imaging, U2OS cells, beta-arrestin-GFP redistribution (AID 1961); assay type: functional
HeLa = assay: Cytotoxicity counterscreen assay for transcriptional activators of heat shock protein 70 (Hsp70). [Related pubchem assays: 1203, 1252 ]; assay type: functional; details: Homo sapiens
[13] = inhibitors of intracellular T. cruzi replication, confirmation, NIH3T3 host cells, beta-gal luminescence (AID 2044); assay type: functional, cell-based;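 also: intracellular parasites grown in NIH/3T3 mouse fibroblasts as host cells; luminescent beta-galactosidase reporter signal from transgenic T. cruzi replicating inside host cells; inhibitors lower the luminescence signal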
HEK293 [14] = assay: cells; assay type: functional, cell-based; details: Homo sapiens; remark: listed apart in the source
Nonstructural protein 1 = Nonstructural protein 1 (Influenza A virus, UniProt Q194T2); assay type: functional, Influenza A virus (A/California/07/2009(H1N1))
[15] = target: Sphingosine 1-phosphate receptor 1 (Homo sapiens, UniProt P21453); assay type: functional;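 also: Tango beta-arrestin reporter U2OS cells stimulated with S1P near its EC80; inhibitor potency meaning antagonism of receptor activation by the natural agonist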
[16] = target: Lytic switch protein BZLF1 (Epstein-Barr virus (strain B95-8) (HHV-4) (Human herpesvirus 4), UniProt P03206); assay: EBV ZTA inhibitors, dose response, counter-screen for EBNA-1 inhibitor project, biochemical, fluorescence polarization, Epstein-Barr virus, 1536-well (AID 2377); set-up: species or system human gammaherpesvirus 4;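 also: fluorescence polarization of Cy5-labelled ZRE DNA probe bound by purified Zta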
[17] = target: Epstein-Barr nuclear antigen 1 (Epstein-Barr virus (strain B95-8) (HHV-4) (Human herpesvirus 4), UniProt P03211); assay: EBNA-1 inhibitors, dose response, biochemical, fluorescence polarization, 1536-well (AID 2381); set-up: species or system human gammaherpesvirus 4;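 also: fluorescence polarization of a Cy5 DNA probe bound by EBNA-1 protein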
[18] = target: T3, Eukaryotic translation initiation factor 2-alpha kinase 3 (Homo sapiens, UniProt Q9NZJ5); assay: Dose response cell-based high-throughput screening assay to measure PERK inhibition. [Related pubchem assays: 1416 ]; assay type: functional
[19] = target: T3, Eukaryotic translation initiation factor 2-alpha kinase 3; assay: Counterscreen assay for PERK inhibitors: Dose response cell-based high throughput screening assay to measure inhibition of PERK at 6 hours. [Related pubchem assays: 1522, 1416 ]; assay type: functional
[20] = target: Acyl-homoserine lactone acylase PvdQ (Pseudomonas aeruginosa (strain LESB58), UniProt Q9I194); assay: P. aeruginosa PvdQ acylase inhibitors, dose response, biochemical, fluorescence, plate reader and imaging, cherry-picks (AID 493231)
[21] = inhibitors of Bluetongue virus cytopathic effect, confirmation, arbovirus, BSR cells (AID 1250); assay type: functional;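 also: protection from viral cytopathic effect measured as cell viability by ATP luminescence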

## COc1cc(NC(=O)c2cc(-c3ccccc3Cl)on2)cc(OC)c1OC
[1]
  AC50: 32 µM (active)

## COC(=O)c1ccc2c(c1)C(C)(C)C(/C=C/c1ccccc1O)=[N+]2C.[I-]
MDCK [2]
  CC50: 5.8 µM (active)
HEK293 [3]
  EC50: 7.83 µM (active)
Vero
  CC50: 4.79 µM (active)
[4]
  CC50: 30.9 µM (active)
[5]
  EC50: 18.3 µM (active)
HEK293 [6]
  IC50: > 20 µM (inactive)
[7]
  IC50: 0.798 µM (active)
HEK293 [8]
  IC50: 11.7 µM (inactive)
[9]
  IC50: 21 µM (active)
MDCK [10]
  IC50: 8.58 µM (active)
X-box-binding protein 1
  Absolute IC50 (XBP1): 10 µM
[11]
  EC50: 4.69 µM (active)
[12]
  EC50: 2.75 µM (active)
HeLa
  CC50: 8.49 µM (active)
[13]
  EC50: 0.584 µM (active)
HEK293 [14]
  IC50: 5.74 µM (active)
Nonstructural protein 1
  IC50: 22.7 µM (active)
[15]
  IC50: 4.76 µM (active)

## COc1ccc(NC(=O)COc2ccc3c(C)cc(=O)oc3c2)cc1S(=O)(=O)N1CCCCC1
[16]
  IC50: > 111 µM (not active)
[17]
  IC50: 5.29 µM (active)

## CCS(=O)(=O)N1CCC(C(=O)NCc2ccc(F)cc2)CC1
[18]
  EC50: > 55.7 µM (not active)
[19]
  EC50: > 55.7 µM (not active)

## N#CC(c1cccc(Cl)c1)c1ncc(C(F)(F)F)cc1Cl (stereo not given)
[20]
  AC50: 2.74 µM (active)

## Cc1nc2c(C(=O)NCCc3ccccc3Cl)cnn2c(O)c1Cl
[21]
  IC50: 23.9 µM (active)
